1 compound from ChEMBL document CHEMBL3865788, “Synthesis, characterization and interaction studies of 1,3,4-oxadiazole derivatives of fatty acid with human serum albumin (HSA): A combined multi-spectroscopic and molecular docking study” (Eur J Med Chem, 2016) can be followed below.

Molecules are shown by their SMILES.

Common to all, as to type: ADME
What all share (conditions): isolated protein

Data set [1] deals with T1, Albumin (Homo sapiens, UniProt P02768). The data set can be described thus: Binding affinity to human serum albumin assessed as binding constant in steady state at 298K and pH 7.4 by fluorescence spectroscopy.
For data set [2], the target named is T1, Albumin. Put plainly: Binding affinity to human serum albumin assessed as quenching constant in steady state at 298K and pH 7.4 by fluorescence spectroscopy.
In data set [3] the target is T1, Albumin. The data set can be described thus: Binding affinity to human serum albumin assessed as Stern-Volmer quenching constant in steady state at 298K and pH 7.4 by fluorescence spectroscopy.
The target in data set [4] is T1, Albumin. Put plainly: Binding affinity to human serum albumin assessed as absorbance at 280 nanometer at 50 and 100 uM by UV-vis spectroscopy.

T1 sequence (P02768 whole entry): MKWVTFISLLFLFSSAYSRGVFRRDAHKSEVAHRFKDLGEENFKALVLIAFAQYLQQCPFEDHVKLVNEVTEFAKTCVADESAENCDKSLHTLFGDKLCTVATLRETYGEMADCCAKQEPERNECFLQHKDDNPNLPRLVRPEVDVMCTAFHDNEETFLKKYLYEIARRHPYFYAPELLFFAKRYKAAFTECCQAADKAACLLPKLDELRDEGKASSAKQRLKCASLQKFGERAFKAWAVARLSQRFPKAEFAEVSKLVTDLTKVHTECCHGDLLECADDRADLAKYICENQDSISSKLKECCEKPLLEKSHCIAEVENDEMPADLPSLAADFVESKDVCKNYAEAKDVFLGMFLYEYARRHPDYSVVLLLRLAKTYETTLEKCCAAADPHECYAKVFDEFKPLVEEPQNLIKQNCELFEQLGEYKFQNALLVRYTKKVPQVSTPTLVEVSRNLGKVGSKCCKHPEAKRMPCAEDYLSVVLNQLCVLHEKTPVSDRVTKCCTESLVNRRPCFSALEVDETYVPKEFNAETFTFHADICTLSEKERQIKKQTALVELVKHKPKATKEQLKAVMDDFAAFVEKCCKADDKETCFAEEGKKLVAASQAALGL

Turning to `CCCCCCCC/C=C\CCCCCCCc1nnc(C)o1`, the Kb in data set [1] amounted to 2.95 ×10³ /M. In addition, in data set [2], the Kq amounted to 6.4 ×10¹¹ /M/s. The KSV in data set [3] is 3.6 ×10³ /M. Further, the Activity in data set [4] was less than 0.03.
